From patent US5281583A, “LPS-containing analgesics and veterinary analgesics” (priority 1990, dated 1994)

What was measured:
C3H/H male mice = test: acetic acid-writhing method, intravenous, time course in comparison with phenylbutazone; type: in vivo, mouse; details: for Writhing frequency / writhing inhibition: Group B, i.v. 1 mg/mouse
Description: The analgesic effects of the LPSs of the present invention have been confirmed by an experiment using animals according to the acetic acid-writhing method described on page 415 of "Inflammation and anti-inflammatory therapy" issued in 1982 by Ishiyaku Shuppan Co. in Japan, one of the established methods for the determination of the effects of non-narcotic analgesics. The experiment included comparison with the prior art phenylbutazone which is often used to eliminate inflammatory pain.
2) The following preparations were given to six-membered groups of 8 week old C3H/H male mice (body weight: 20-25 g).
Group A: an intravenous solution prepared by dissolving 1 μg by weight/mouse of LPS (wheat LPS prepared in Reference Example 1) in 0.2 ml of physiological saline.
Group B: an intravenous solution prepared by dissolving 1 mg/mouse of the prior art analgesic phenylbutazone in 0.2 ml of 1% aqueous CMC solution.
Group C: 0.2 ml of physiological saline.
0.5 ml of 1% acetic acid was administered intraperitoneally 0.5, 1.5, 3, 8 or 18 hours after the administration of the preparations, and the writhing frequency of the respective mice was counted. The results are shown in Table 9 as an average of six mice in the respective groups. In the table, the writhing inhibition (%) was calculated as follows: [formula]
In the above equation, the writhing frequency in the group C is that obtained in the case where acetic acid was given 30 minutes after the administration of physiological saline, and the counting was made for 30 minutes. The data of the group A was 39, whereas that of the group B was 35.

[1] = system: macrophage peritoneal cells of mice; test: ability of LPS to activate in vitro TNF productivity of macrophage (TNF activity by cytotoxicity to L929 cells); type: cell-based, mouse
Method: In order to determine the ability of LPS to activate the in vitro TNF productivity of macrophage, a recombinant mouse IFN-γ is added to peritoneal macrophage cells of mouse as the primer followed by addition of the LPS as the trigger thereto, and then the TNF activity is determined.
The TNF activity is determined, as follows, on the basis of the cytotoxicity to L929 cells (Proci. Natl. Acad. Sci. U.S.A., 72, pp. 3666-3670, […]). L-929 cells are cultured in Eagles' Minimum Essential Medium (hereunder referred to only as MEM) with 5% fetal calf serum (hereunder referred to only as FCS) added thereto until 100 μl of the medium contains 8×10^4 cells, and then the cells are grown in a flat-bottomed plate having 96 wells.
The growth conditions are 37° C. in the presence of 5% CO2, and under a humidity of 100% for 2 hours, and the procedures may be the same as for the conventional cell culture. Then actinomycin D is added to the medium to a final concentration of 1 μg/ml, and the volume of the culture solution is adjusted to 150 μl. Immediately thereafter 50 μl of the sample diluted appropriately with MEM medium is added to the culture solution. Here, ED50 may be determined by adjusting the dilution appropriately. The L-929 cells having a final volume of 200 μl are cultured for an additional 18 hours under the same conditions as described above.
In order to determine the cell necrosis activity, first the whole medium is removed followed by addition of a 1% methyl alcoholic solution containing 0.1% crystal violet for fixation staining. Crystal violet stains all the eukaryotic cells, but the dead cells are removed off from the bottom of the flask only by washing after the staining; so the cell necrosis activity may be determined directly. The staining degree is measured on the basis of adsorption at OD590 nm, and is compared with that of a control to determine the cell necrosis activity. This activity is defined as follows.
The dilution of the sample which allows 50% of the L-929 cells to survive (N) is determined. Rabbit TNS is used as the control, and its activity n (units/ml) is determined using 2.4×10^6 units/mg/ml of TNF-α. The dilution which provides ED50 of rabbit TNS is determined.
The activity of the sample (units/ml) is calculated by the equation N/C×n.
Two hundred μl (2×10^5 cells)/well of macrophage peritoneal cells of mice (each group comprised three mice of 9 weeks old and having an average weight of 29 g) were placed in a flat-bottomed plate having 96 wells, and 10 μl of recombinant IFN-γ (100 units/ml) as a primer was placed in the respective wells. Separately, extracts prepared by extraction of various LPS sources with hot water at 65° C. for 5 hrs. were diluted to various degrees, and then were administered as triggers to the cells three hours after the administration of the primer in a proportion of 10 μl/well. After two hour culture, the culture solutions were subjected to centrifugation at 3,000 G for 20 min. A pipette was used to collect 130 μl of the supernatant from the respective wells, and the TNF activity was determined on the basis of the toxicity to L929 cells. The limulus test-positive LPS content was determined using Toxicolor System® commercially available from Sei-Kagaku Kogyo Co. in Japan.
The values were plotted to prepare a graph wherein the quantity of the TNF produced (units/ml of culture solution) was plotted along the axis of ordinate, whereas the corresponding limulus test-positive LPS content (ng/ml of culture solution) was plotted along the axis of abscissa (on a logarithmic scale), and a sigmoid curve was prepared on the basis of the plotted points. The macrophage activation ability was estimated to be 0% in the case where it corresponded to the quantity of TNF produced by macrophage with no trigger added thereto, and 100% was assigned to the macrophage activation ability which provided the maximal constant of TNF. […]

[2] = LPS 2 ng/ml of culture solution
[3] = LPS 24 ng/ml of culture solution
[4] = LPS 240 ng/ml of culture solution
[5] = LPS 2400 ng/ml of culture solution

| Compound | significance of analgesic effects (double-sided t test) (C3H/H male mice; 3 hours after administration) | Writhing frequency (C3H/H male mice; time lapsed 0.5 h) | writhing inhibition (C3H/H male mice; time lapsed 0.5 h) [%] | Writhing frequency (C3H/H male mice; time lapsed 1.5 h) | writhing inhibition (C3H/H male mice; time lapsed 1.5 h) [%] | Writhing frequency (C3H/H male mice; time lapsed 3 h) | writhing inhibition (C3H/H male mice; time lapsed 3 h) [%] | TNF produced [1, 2] | macrophage activation ability [1, 2] [%] | TNF produced [1, 3] | macrophage activation ability [1, 3] [%] | TNF produced [1, 4] | macrophage activation ability [1, 4] [%] | TNF produced [1, 5] | macrophage activation ability [1, 5] [%] |
| --- | --- | --- | --- | --- | --- | --- | --- | --- | --- | --- | --- | --- | --- | --- | --- |
| CCCCC1C(=O)N(c2ccccc2)N(c2ccccc2)C1=O [phenylbutazone] | no significant analgesic effects | 18 | 49 | 7 | 80 | 25 | 29 |  |  |  |  |  |  |  |  |
| Lipid A |  |  |  |  |  |  |  | 4.7 units/ml of culture solution | 37 | 9.4 units/ml of culture solution | 80 | 11.1 units/ml of culture solution | 96 | 11.5 units/ml of culture solution | 100 |
